Test results reported in patent US20240101570A1 (AMGEN INC., priority 2020, published 2024).

Tests used:
HCT116 MTAP null cells = assay: HCT116 MTAP null cell proliferation / viability (CellTiter-Glo, 6 days); format: cell-based; conditions: HCT116-MTAP null, 144 h, HCT116 MTAP null cells, 6 days, CellTiter-Glo; read-out: HCT-116 MTAP null IC50
In short: (§1)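 Viability read by CellTiter-Glo after 6-day compound exposure of MTAP-null and wild-type HCT116 cells grown in RPMI 1640 with 10% FBS. Dosing used 1:3 steps from 1 or 10 μM (8-9 points) or 1:2 steps from 10 or 50 μM (22 points); IC50 taken where fitted curve crosses 50% of control.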

HCT116 WT cells = assay: HCT116 WT cell proliferation / viability (CellTiter-Glo, 6 days); format: cell-based; conditions: Homo sapiens, HCT-116, 144 h, HCT116 WT cells, 6 days, CellTiter-Glo; read-out: HCT-116 WT IC50
In short: as §1

Row | SMILES | IC50 (HCT116 MTAP null cells) [nM] | IC50 (HCT116 WT cells) [µM]
1 | C[C@@H](c1ncc(F)cn1)N(CCOC(F)(F)F)C(=O)c1cc2c3c(c(N)nc2cc1F)COC3 (single isomer, unassigned) [Example 833] | 2560 | 27.2
2 | C[C@H](c1ncc(F)cn1)N(CCOC(F)(F)F)C(=O)c1cc2c3c(c(N)nc2cc1F)COC3 (single isomer, unassigned) [Example 834] | 817 | 19.7
3 | CCN(C(=O)c1ccc2nc(N)c3c(c2c1)COC3)[C@H](C)c1ccc(C#N)cc1 (single isomer, unassigned) [Example 835] | 126 | 3.76
4 | CCN(C(=O)c1ccc2nc(N)c3c(c2c1)COC3)[C@@H](C)c1ccc(C#N)cc1 (single isomer, unassigned) [Example 836] | 3640 | 38.7
5 | CCN(C(=O)c1ccc2nc(N)c3c(c2c1)COC3)[C@@H](C)c1ccc(C#N)cn1 (single isomer, unassigned) [Example 837] | 7080 | > 50
6 | CCN(C(=O)c1ccc2nc(N)c3c(c2c1)COC3)[C@H](C)c1ccc(C#N)cn1 (single isomer, unassigned) [Example 838] | 161 | 8.59
7 | CC(C)N(C(=O)c1ccc2nc(N)c3c(c2c1)CO[C@@H]3C)[C@H](C)c1ccc(C(F)(F)F)cn1 (single isomer, unassigned) [Example 839] | 213 | 9.52
8 | CC(C)N(C(=O)c1ccc2nc(N)c3c(c2c1)CO[C@@H]3C)[C@@H](C)c1ccc(C(F)(F)F)cn1 (single isomer, unassigned) [Example 840] | 638 | 22.9
9 | CC(C)N(C(=O)c1cc2c3c(c(N)nc2cc1F)COC3)[C@@H](C)c1ccc(C(F)(F)F)cn1 (single isomer, unassigned) [Example 841] | 613 | 11.7
10 | CC(C)N(C(=O)c1cc2c3c(c(N)nc2cc1F)COC3)[C@H](C)c1ccc(C(F)(F)F)cn1 (single isomer, unassigned) [Example 842] | 115 | 3.27
11 | CCN(C(=O)c1ccc2nc(N)c3c(c2c1)CO[C@@H]3C)[C@@H](C)c1ccc(C#N)cn1 (single isomer, unassigned) [Example 843] | 3360 | > 50
12 | CCN(C(=O)c1ccc2nc(N)c3c(c2c1)CO[C@@H]3C)[C@H](C)c1ccc(C#N)cn1 (single isomer, unassigned) [Example 844] | 105 | 6.23
13 | CC(C)N(C(=O)c1cc2c3c(c(N)nc2cc1Cl)COC3)[C@H](C)c1ccc(C(F)(F)F)cn1 (single isomer, unassigned) [Example 845] | 105 | 2.24
14 | CC(C)N(C(=O)c1cc2c3c(c(N)nc2cc1Cl)COC3)[C@@H](C)c1ccc(C(F)(F)F)cn1 (single isomer, unassigned) [Example 846] | 212 | 3.94
15 | CC(C)N(C(=O)c1cc2c3c(c(N)nc2cn1)COC3)[C@@H](C)c1ccc(C(F)(F)F)cn1 (single isomer, unassigned) [Example 847] | 1860 | 36.1
16 | CC(C)N(C(=O)c1cc2c3c(c(N)nc2cn1)COC3)[C@H](C)c1ccc(C(F)(F)F)cn1 (single isomer, unassigned) [Example 848] | 453 | 11.5
17 | CC[C@H](c1ccc(C(F)(F)F)cn1)N(C)C(=O)c1cc2c3c(c(N)nc2cn1)COC3 (single isomer, unassigned) [Example 849] | 879 | 24.4
18 | CC[C@@H](c1ccc(C(F)(F)F)cn1)N(C)C(=O)c1cc2c3c(c(N)nc2cn1)COC3 (single isomer, unassigned) [Example 850] | 8340 | > 50
19 | C[C@H](c1ccc(C(F)(F)F)cn1)N(C)C(=O)c1ccc2nc(N)c3c(c2c1)CO[C@@H]3C (single isomer, unassigned) [Example 851] | 47 | 4
20 | C[C@H]1OCc2c1c(N)nc1ccc(C(=O)N(C)[C@@H](C)c3ccc(C(F)(F)F)cn3)cc21 (single isomer, unassigned) [Example 852] | 3160 | > 50
21 | C[C@H](c1ncc(F)cc1F)N(C)C(=O)c1cc2c(cc1F)nc(N)c1cnn(C)c12 (single isomer, unassigned) [Example 853] | 167 | 14.3
22 | C[C@H](c1ccc(C(F)(F)F)cn1)N(C)C(=O)c1cc2c3c(c(N)nc2cn1)COC3 (single isomer, unassigned) [Example 854] | 86 | 3.28
23 | C[C@H](c1ccc(C(F)(F)F)nn1)N(C)C(=O)c1ccc2nc(N)c3cnn(C)c3c2c1 (single isomer, unassigned) [Example 855] | 164 | 28.9
24 | C[C@H](c1ccc(C(F)(F)F)nn1)N(C)C(=O)c1ccc2nc(N)c3c(c2c1)CO[C@@H]3C (single isomer, unassigned) [Example 856] | 87 | 8.48

Row | SMILES | IC50 (HCT116 MTAP null cells) [nM] | IC50 (HCT116 WT cells) [µM]
25 | C[C@H](c1ccc(C(F)(F)F)cc1)N(C)C(=O)c1cc2c3c(c(N)nc2cc1F)COC3 (single isomer, unassigned) [Example 857] | 26 | 1.09
26 | C[C@H](c1ccc(C(F)(F)F)nn1)N(C)C(=O)c1cc2c3c(c(N)nc2cc1F)COC3 (single isomer, unassigned) [Example 858] | 41 | 3.33
27 | C[C@H]1OCc2c1c(N)nc1cc(F)c(C(=O)N(C)[C@@H](C)c3ccc(C(F)(F)F)cc3)cc21 (single isomer, unassigned) [Example 859] | 583 | 17.5
28 | C[C@H](c1ccc(C(F)(F)F)cc1)N(C)C(=O)c1cc2c3c(c(N)nc2cc1F)[C@@H](C)OC3 (single isomer, unassigned) [Example 860] | 17 | 0.849
29 | C[C@H](c1ncc(C(F)(F)F)cc1F)N(C)C(=O)c1cc2c(cn1)nc(N)c1c2cnn1C (single isomer, unassigned) [Example 861] | 205 | 13.6
30 | C[C@H](c1ccc(C(F)(F)F)nn1)N(C)C(=O)c1cc2c3c(c(N)nc2cc1F)[C@@H](C)OC3 (single isomer, unassigned) [Example 862] | 31 | 2.19
31 | C[C@H](c1ncc(C(F)(F)F)cc1F)N(C)C(=O)c1cc2c(cc1F)nc(N)c1cnn(C)c12 (single isomer, unassigned) [Example 863] | 7 | 0.34
32 | C[C@@H](c1ncc(C(F)(F)F)cc1F)N(C)C(=O)c1cc2c(cc1F)nc(N)c1cnn(C)c12 (single isomer, unassigned) [Example 864] | 618 | 22.7
33 | C[C@H](c1ncc(C(F)(F)F)cc1F)N(C)C(=O)c1cc2c(cc1F)nc(N)c1c2cnn1C (single isomer, unassigned) [Example 865] | 59 | 2.81
34 | COc1cc(C(F)(F)F)cnc1[C@@H](C)N(C)C(=O)c1cc2c(cc1F)nc(N)c1c2cnn1C (single isomer, unassigned) [Example 866] | 309 | 11.3
35 | COc1cc(C(F)(F)F)cnc1[C@@H](C)N(C)C(=O)c1cc2c(cc1F)nc(N)c1cnn(C)c12 (single isomer, unassigned) [Example 867] | 157 | 7.84
36 | C[C@H](c1ccc(S(F)(F)(F)(F)F)cc1)N(C)C(=O)c1cc2c(cn1)nc(N)c1c2cnn1C (single isomer, unassigned) [Example 868] | 59 | 3.84
37 | C[C@@H](c1ccc(S(F)(F)(F)(F)F)cc1)N(C)C(=O)c1cc2c(cc1F)nc(N)c1cnn(C)c12 (single isomer, unassigned) [Example 869] | 627 | 8.43
38 | C[C@H](c1ccc(S(F)(F)(F)(F)F)cc1)N(C)C(=O)c1cc2c(cc1F)nc(N)c1cnn(C)c12 (single isomer, unassigned) [Example 870] | 7 | 0.162
39 | CC[C@H](c1cncnc1)N(Cc1ccc(S(F)(F)(F)(F)F)cc1)C(=O)c1cc2c(cn1)nc(N)c1cnn(C)c12 (single isomer, unassigned) [Example 871] | 25 | 0.078
40 | CC[C@@H](c1cncnc1)N(Cc1ccc(S(F)(F)(F)(F)F)cc1)C(=O)c1cc2c(cn1)nc(N)c1cnn(C)c12 (single isomer, unassigned) [Example 872] | 75 | 4.5
41 | C[C@H](c1ccc(F)cn1)N(C)C(=O)c1cc2c(cc1F)nc(N)c1cnn(C)c12 (single isomer, unassigned) [Example 873] | 66 | 7.32
42 | C[C@@H](c1ccc(F)cn1)N(C)C(=O)c1cc2c(cc1F)nc(N)c1cnn(C)c12 (single isomer, unassigned) [Example 874] | 929 | 36
43 | CCN(C(=O)c1cc2c(cc1F)nc(N)c1cnn(C)c12)[C@H](C)c1ccc(F)cn1 (single isomer, unassigned) [Example 875] | 25 | 1.42
44 | CCN(C(=O)c1cc2c(cc1F)nc(N)c1cnn(C)c12)[C@@H](C)c1ccc(F)cn1 (single isomer, unassigned) [Example 876] | 334 | 30.4
45 | C[C@@H](c1ccc(C(F)(F)F)nn1)N(C(=O)c1cc2c(cc1F)nc(N)c1cnn(C)c12)C1CC1 (single isomer, unassigned) [Example 877] | 756 | 44.1
46 | C[C@H](c1ccc(C(F)(F)F)nn1)N(C(=O)c1cc2c(cc1F)nc(N)c1cnn(C)c12)C1CC1 (single isomer, unassigned) [Example 878] | 10 | 0.709
47 | C[C@H](c1ccc(C(F)(F)F)nn1)N(C)C(=O)c1cc2c(cc1C(F)(F)F)nc(N)c1cnn(C)c12 (single isomer, unassigned) [Example 879] | 181 | 12.3
